Results as given in patent publication US20260055108A1, “TRIAZINE COMPOUNDS AND USES THEREOF” (HUTCHMED LIMITED, priority 2022, published 2026).
Read-outs that look alike come from different tables or passages of the source.

What was measured:
[1] = target: Recombinant human Menin protein (2-610) / MLL polypeptide binding (Homo sapiens (Human), UniProt O00255); test: Menin and MLL protein binding at a molecular level (fluorescence polarization method); conditions: inhibition of Menin / MLL polypeptide binding
How it was run: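 Binding of recombinant human Menin (2-610) to 6-FAM-labelled MLL peptide measured by fluorescence polarization (ex 480/em 535 nm) in Tris/NaCl/TCEP buffer, pH 7.5, 2% DMSO. Compound preincubated with Menin 30 min at room temperature, then peptide added for 30 min in the dark. Tested at 1.000 down to 0.0005 μM final.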

[2] = system: MV-4-11 cells (human acute myelogenous leukemia cell line carrying MLL-AF4 mutation); test: Cell proliferation assay, MV-4-11 (CellTiter-Glo); format: cell-based
How it was run: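 MV-4-11 cells (3000/well, IMDM with 10% HIFBS and 50 μM β-mercaptoethanol) exposed to compound at 1.100–0.001 μM final, 0.1% DMSO, for 3 days at 37°C. Viability read by CellTiter-Glo luminescence on day 0 and day 3, normalised to day-0 and untreated wells.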

[3] = Homo sapiens, MV4-11, 72 h, MV-4-11 cells, 3 days treatment, CellTiter-Glo, read-out: GI50

Sequence of Recombinant human Menin protein (2-610) / MLL polypeptide binding (O00255 2-610): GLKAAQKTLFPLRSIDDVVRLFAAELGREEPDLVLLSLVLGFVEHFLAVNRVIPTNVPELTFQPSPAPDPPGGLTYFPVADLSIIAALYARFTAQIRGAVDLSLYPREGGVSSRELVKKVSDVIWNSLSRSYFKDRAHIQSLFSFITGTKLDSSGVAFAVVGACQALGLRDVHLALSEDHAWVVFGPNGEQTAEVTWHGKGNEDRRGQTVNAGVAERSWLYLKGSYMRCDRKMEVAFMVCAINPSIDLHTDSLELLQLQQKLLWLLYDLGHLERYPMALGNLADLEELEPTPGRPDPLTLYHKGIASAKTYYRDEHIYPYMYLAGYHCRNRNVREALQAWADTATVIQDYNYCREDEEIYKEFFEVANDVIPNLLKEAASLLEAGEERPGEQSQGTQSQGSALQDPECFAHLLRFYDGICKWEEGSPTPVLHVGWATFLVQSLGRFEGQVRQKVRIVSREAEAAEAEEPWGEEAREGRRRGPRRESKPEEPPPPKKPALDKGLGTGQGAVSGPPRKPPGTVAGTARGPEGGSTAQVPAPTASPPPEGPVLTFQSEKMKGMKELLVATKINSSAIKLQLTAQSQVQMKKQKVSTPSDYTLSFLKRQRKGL

Row | Structure (SMILES) | IC50 [1] [nM] | GI50 [2, 3] [nM] | GI50 ([2]; MV-4-11 cells, 3 days treatment, CellTiter-Glo, read-out: GI50) [nM] | GI50 ([2]; Homo sapiens, MV4-11, 72 h) [nM]
1 | C[C@H]1CN(C)CCN1C(=O)c1cc(F)ccc1Oc1nncnc1N1CC2(CCN(CC3CCN(c4ccccn4)CC3)CC2)C1 [Compound 76] | 878 | 932 | – | –
2 | CCN(C(=O)c1cc(F)ccc1Oc1nncnc1N1CC2(CCN(Cc3ccc4c(cc(C(=O)NC)n4CCO)c3C)CC2)C1)C(C)C [Compound 152, 5-((2-(6-(2-(ethyl(isopropyl)carbamoyl)-4-fluorophenoxy)-1,2,4-triazin-5-yl)-2,7-diazaspiro[3.5]nonan-7-yl)methyl)-1-(2-hydroxyethyl)-N,4-dimethyl-1H-indole-2-carboxamide] | 357 | 369 | – | –
3 | CCN(C(=O)c1cc(F)ccc1Oc1nncnc1N1CC(C2(N(C)Cc3cc(C#N)n(C)n3)CC2)C1)C(C)C [Compound 146, 2-((5-(3-(1-(((5-cyano-1-methyl-1H-pyrazol-3-yl)methyl)(methyl)amino)cyclopropyl)azetidin-1-yl)-1,2,4-triazin-6-yl)oxy)-N-ethyl-5-fluoro-N-isopropylbenzamide] | > 1000 | 986 | – | –
4 | CCN(C(=O)c1cc(F)ccc1Oc1nncnc1N1CC2(CCN(CC3CCN(C(=O)N(C)c4ccccn4)CC3)CC2)C1)C(C)C [Compound 25] | 163 | 231 | – | –
5 | CCNC(=O)c1cc(F)ccc1Oc1nncnc1N1CC2(CCN(CC3CCN(c4cc(OC)c(OC)nn4)CC3)CC2)C1 [Compound 179, (Z)-2-((5-(7-((1-(5,6-dimethoxypyridazin-3-yl)piperidin-4-yl)methyl)-2,7-diazaspiro[3.5]nonan-2-yl)-1,2,4-triazin-6-yl)oxy)-N-ethyl-5-fluorobenzimidic acid] | 560 | – | 155 | –
6 | CCN(C(=O)c1cc(F)ccc1Oc1nncnc1N1CC2(CCN(CC3CCC(c4ccccn4)CC3)CC2)C1)C(C)C (stereo not drawn) [Compound 135, N-ethyl-5-fluoro-N-isopropyl-2-((5-(7-((4-(pyridin-2-yl)cyclohexyl)methyl)-2,7-diazaspiro[3.5]nonan-2-yl)-1,2,4-triazin-6-yl)oxy)benzamide] | 55.5 | 22 | – | –
7 | CCN(C(=O)c1cc(F)ccc1Oc1nncnc1N1CC2(CCN(Cc3ccc4oc(C)nc4c3)CC2)C1)C(C)C [Compound 67] | 512 | 309 | – | –
8 | COc1cc(N2CCC(CN3CCC4(CC3)CN(c3ncnnc3Oc3ccc(F)cc3C(=O)NC(C)C)C4)CC2)nnc1OC [Compound 177, 2-((5-(7-((1-(5,6-dimethoxypyridazin-3-yl)piperidin-4-yl)methyl)-2,7-diazaspiro[3.5]nonan-2-yl)-1,2,4-triazin-6-yl)oxy)-5-fluoro-N-isopropylbenzamide] | 47.3 | – | – | 92
9 | CCN(C(=O)c1cc(F)ccc1Oc1nncnc1N1CC2(CCN(Cc3ccc4c(cc(C(=O)O)n4CCO)c3C)CC2)C1)C(C)C [Compound 159] | 450 | 642 | – | –
10 | CCN(C(=O)c1cc(F)ccc1Oc1nncnc1N1CC2(CCN(Cc3ccc4nc(C)ncc4c3)CC2)C1)C(C)C [Compound 71] | > 1000 | 1280 | – | –
11 | O=C(NC1CC1)N1CCC(CN2CCC3(CC2)CN(c2ncnnc2Oc2ccc(F)cc2)C3)CC1 [Compound 31] | 155 | 284 | – | –
12 | CCN(C(=O)c1cc(F)ccc1Oc1nncnc1N1CC(C2(N(Cc3ccc4[nH]c(C#N)cc4c3C)C(C)C)CC2)C1)C(C)C [Compound 141] | 153 | 442 | – | –
13 | CCN(C(=O)c1cc(F)ccc1Oc1nncnc1N1CC2(CCN(CC3(N(C)C(=O)COC)CC3)CC2)C1)C(C)C [Compound 144, N-ethyl-5-fluoro-N-isopropyl-2-((5-(7-((1-(2-methoxy-N-methylacetamido)cyclopropyl)methyl)-2,7-diazaspiro[3.5]nonan-2-yl)-1,2,4-triazin-6-yl)oxy)benzamide] | 616 | 644 | – | –
14 | CCN(C(=O)c1cc(F)ccc1Oc1nncnc1N1CC2(CCN(CC3CCN(C[C@@H](O)CC#N)CC3)CC2)C1)C(C)C [Compound 39] | 68.3 | 97 | – | –
15 | CCN(C(=O)c1cc(F)ccc1Oc1nncnc1N1CC2(CCN(Cc3c(C)cc(C)[nH]c3=O)CC2)C1)C(C)C [Compound 58] | 114 | 230 | – | –
16 | CCN(C(=O)c1cc(F)ccc1Oc1nncnc1N1CC2(CCN(Cc3ccc4oc(C(=O)NC)cc4c3)CC2)C1)C(C)C [Compound 74] | 418 | 176 | – | –

More lines, main results first:

Row | IC50 [1] [nM] | GI50 [2, 3] [nM] | GI50 ([2]; MV-4-11 cells, 3 days treatment, CellTiter-Glo, read-out: GI50) [nM] | Structure (SMILES) | GI50 ([2]; Homo sapiens, MV4-11, 72 h) [nM]
17 | 1.2 | 3 | – | CCN(C(=O)c1cc(F)ccc1Oc1nncnc1N1CC2(CCN(Cc3ccc4[nH]c(C#N)cc4c3C)CC2)C1)C(C)C [Compound 66] | –
18 | 23.2 | 56 | – | CCN(C(=O)c1cc(F)ccc1Oc1nncnc1N1CC2(CCN(Cc3ccc(NS(C)(=O)=O)cc3C)CC2)C1)C(C)C [Compound 23] | –
19 | 25.5 | 7 | – | C=CC(=O)Nc1cccc(N2CC3(CCC(CN4CCC5(CC4)CN(c4ncnnc4Oc4ccc(F)cc4C(=O)N(CC)C(C)C)C5)CC3)C2)c1 [Compound 181] | –
20 | 5.1 | 20 | – | CCN(C(=O)c1cc(F)ccc1Oc1nncnc1N1CC2(CCN(CC3CCN(C(=O)C4(O)CC4)CC3)CC2)C1)C(C)C [Compound 11] | –
21 | 0.9 | 1 | – | CCN(C(=O)c1cc(F)ccc1Oc1nncnc1N1CC2(CCN(CC3CCN(c4cc(C)c(OC)nn4)CC3)CC2)C1)C(C)C [Compound 97] | –
22 | 1.1 | 4 | – | CCN(C(=O)c1cc(F)ccc1Oc1nncnc1N1CC2(CCN(CC3CCN(c4ccc(OC)nn4)CC3)CC2)C1)C(C)C [Compound 88] | –
23 | 14.6 | 27 | – | CCN(C(=O)c1cc(F)ccc1Oc1nncnc1N1CC2(CCN(CC3CCN(c4ccc(C#N)cn4)CC3(C)C)CC2)C1)C(C)C (stereo not drawn) [Compound 126] | –
24 | 1 | 4 | – | CCN(C(=O)c1cc(F)ccc1Oc1nncnc1N1CC2(CCN(CC3CCN(C(=O)NC4CCC4)CC3)CC2)C1)C(C)C [Compound 32] | –
25 | 13.9 | 30 | – | CCN(C(=O)c1cc(F)ccc1Oc1nncnc1N1CC2(CCN(Cc3ccc4c(c3)cc(C#N)n4CCO)CC2)C1)C(C)C [Compound 162] | –
26 | 4.9 | 49 | – | CCN(C(=O)c1cc(F)ccc1Oc1nncnc1N1CC(C2(N(CCO)Cc3ccc4[nH]c(C#N)cc4c3C)CC2)C1)C(C)C [Compound 163] | –
27 | 3 | 5 | – | CCN(C(=O)c1cc(F)ccc1Oc1nncnc1N1CC2(CCN(CC3CCN(c4ccccn4)CC3)CC2)C1)C(C)C [Compound 57, N-ethyl-5-fluoro-N-isopropyl-2-((5-(7-((1-(pyridin-2-yl)piperidin-4-yl)methyl)-2,7-diazaspiro[3.5]nonan-2-yl)-1,2,4-triazin-6-yl)oxy)benzamide] | –
28 | 1.1 | 6 | – | Cc1ccc(N2CCC(CN3CCC4(CC3)CN(c3ncnnc3Oc3ccc(F)cc3-c3ccnn3C(C)C)C4)CC2)nn1 [Compound 86] | –
29 | 3.5 | 4 | – | CCN(C(=O)c1cc(F)ccc1Oc1nncnc1N1CC2(CCN(CC3CCN(c4ccn5ncnc5c4)CC3)CC2)C1)C(C)C [Compound 55, 2-((5-(7-((1-([1,2,4]triazolo[1,5-a]pyridin-7-yl)piperidin-4-yl)methyl)-2,7-diazaspiro[3.5]nonan-2-yl)-1,2,4-triazin-6-yl)oxy)-N-ethyl-5-fluoro-N-isopropylbenizamide] | –
30 | 14.9 | 18 | – | CCN(C(=O)c1cc(F)ccc1Oc1nncnc1N1CC2(CCN(CC3CCN(c4ccnnc4)CC3)CC2)C1)C(C)C [Compound 167] | –
31 | 50.2 | 80 | – | CCN(C(=O)c1cc(F)ccc1Oc1nncnc1N1CC2(CCN(CC3CCN(C(=O)CNC4CC4)CC3)CC2)C1)C(C)C [Compound 7] | –
32 | 1.9 | 9 | – | COc1cc(N2CCC(CN3CCC4(CC3)CN(c3ncnnc3Oc3ccc(F)cc3C(=O)N3CCC[C@H]3C)C4)CC2)nnc1OC [Compound 100] | –
33 | 50.2 | 71 | – | CCN(C(=O)c1cc(F)ccc1Oc1nncnc1N1CC2(CCN(Cc3ccc4oc(C)cc4c3)CC2)C1)C(C)C [Compound 68] | –
34 | 30 | 39 | – | CCN(C(=O)c1cc(F)ccc1Oc1nncnc1N1CC2(CCN(CC3CCN(C(=O)C4(C(F)(F)F)CC4)CC3)CC2)C1)C(C)C [Compound 2] | –
35 | 29.5 | 27 | – | CCN(C(=O)c1cc(F)ccc1Oc1nncnc1N1CC2(CCN(CC3CCN(C(=O)c4ccccc4F)CC3)CC2)C1)C(C)C [Compound 14] | –
36 | 8.5 | 16 | – | CCN(C(=O)c1cc(F)ccc1Oc1nncnc1N1CC2(CCN(Cc3ccc4oc(C#N)cc4c3)CC2)C1)C(C)C [Compound 69] | –
37 | 3.1 | 8 | – | CCN(C(=O)c1cc(F)ccc1Oc1nncnc1N1CC2(CCN(CC3CCN(c4cnc(Cl)nn4)CC3)CC2)C1)C(C)C [Compound 41] | –
38 | 5.4 | 7 | – | CCN(C(=O)c1cc(F)ccc1Oc1nncnc1N1CC2(CCN(CC3CCN(c4ccc(C#N)cn4)CC3)CC2)C1)C(C)C [Compound 50] | –
39 | 1.7 | 2 | – | CCN(C(=O)c1cc(F)ccc1Oc1nncnc1N1CC2(CCN(CC3CCN(c4ccc(C(F)(F)F)nn4)CC3)CC2)C1)C(C)C [Compound 38, N-ethyl-5-fluoro-N-isopropyl-2-((5-(7-((1-(6-(trifluoromethyl)pyridazin-3-yl)piperidin-4-yl)methyl)-2,7-diazaspiro[3.5]nonan-2-yl)-1,2,4-triazin-6-yl)oxy)benzamide] | –
